Assay results reported in PMC8262356, “SLC26A6-selective inhibitor identified in a small-molecule screen blocks fluid absorption in small intestine” (JCI Insight, 2021).
pIC50: −log10 of the molar value.

Key:
PAT1 (murine slc26a6) [1] = target: T1, PAT1 (murine slc26a6) (Mus musculus, UniProt Q8CIW6); assay: PAT1-mediated Cl-/SCN- exchange, YFP fluorescence quenching in FRT cells; assay type: cell-based; conditions: read-out: IC50, inhibition of PAT1-mediated Cl-/SCN- exchange
T1 construct: host or cells: Fischer rat thyroid (FRT) cells, lentiviral transduction (pLVX-IRES-mCherry-slc26a6), clonal line FRT-YFP-slc26a6
T1 sequence (Q8CIW6 24-758 limits assumed): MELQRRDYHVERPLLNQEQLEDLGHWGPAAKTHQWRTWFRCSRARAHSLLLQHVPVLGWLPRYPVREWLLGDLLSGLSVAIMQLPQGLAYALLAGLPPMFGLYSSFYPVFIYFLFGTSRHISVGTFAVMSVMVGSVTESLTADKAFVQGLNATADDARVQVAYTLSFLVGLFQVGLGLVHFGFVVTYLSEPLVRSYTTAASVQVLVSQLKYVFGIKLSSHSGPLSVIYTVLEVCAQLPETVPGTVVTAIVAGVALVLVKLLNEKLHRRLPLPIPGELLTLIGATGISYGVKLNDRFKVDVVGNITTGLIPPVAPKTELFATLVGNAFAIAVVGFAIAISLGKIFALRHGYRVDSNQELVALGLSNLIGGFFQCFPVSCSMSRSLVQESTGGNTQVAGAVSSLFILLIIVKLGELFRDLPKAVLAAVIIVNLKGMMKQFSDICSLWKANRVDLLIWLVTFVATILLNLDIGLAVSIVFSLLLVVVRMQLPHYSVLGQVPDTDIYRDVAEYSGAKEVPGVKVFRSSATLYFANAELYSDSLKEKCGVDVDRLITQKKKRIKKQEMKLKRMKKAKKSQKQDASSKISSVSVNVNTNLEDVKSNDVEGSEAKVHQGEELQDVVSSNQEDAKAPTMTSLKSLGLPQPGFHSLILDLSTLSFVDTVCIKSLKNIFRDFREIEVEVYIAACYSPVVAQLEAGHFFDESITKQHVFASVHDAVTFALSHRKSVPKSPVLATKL
Experimental: (§1) As PAT1 functions as a general monovalent anion exchanger, PAT1inh-B01 inhibition was studied for different modes of anion exchange. […] To measure Cl^–/HCO3^– exchange, the time course of cytoplasmic pH was measured, using BCECF as a pH indicator, in response to a gluconate gradient to drive exchange of cytoplasmic Cl^– with extracellular HCO3^– producing cytoplasmic alkalinization (Figure 2B) as done before for DRA and pendrin ([7], [10], [11]).
Figure 2 PAT1inh-B01 inhibition of PAT1-mediated anion exchange. (A) YFP fluorescence quenching curves (left), as in Figure 1B, for inhibition of PAT1-mediated exchange of Cl^– for SCN^–, with concentration dependence of PAT1inh-B01 effect (right) (mean ± SEM, n = 3). (B) Inhibition of Cl^–/HCO3^– exchange measured in BCECF-loaded FRT cells by PAT1inh-B01 (mean ± SEM, n = 16–32). (C) Time course of PAT1 inhibition following addition of 1 μM PAT1inh-B01 to cells (mean ± SEM, n = 3). (D) Effects of second messenger signaling on PAT1-mediated Cl^–/I^– exchange. YFP fluorescence quenching curves (left) and summary data (right) following cell exposure to agonists of cAMP (20 μM forskolin + 200 μM IBMX), cGMP (100 μM 8-Br-cGMP) and Ca^+2 (100 μM ATP), or vehicle control (1% DMSO). Mean ± SEM, n = 16 experiments per group, differences not significant by 1-way ANOVA and post hoc Newman-Keuls multiple comparisons test.

PAT1 (murine slc26a6) [2] = target: T1, PAT1 (murine slc26a6); assay: PAT1-mediated Cl-/HCO3- exchange, cytoplasmic pH in BCECF-loaded FRT cells; assay type: cell-based; conditions: read-out: IC50, inhibition of Cl-/HCO3- exchange
Experimental: as §1
YFP-based cellular assays of slc26a3, slc26a4, SLC26A9, and TMEM16A function were performed as described previously ([7]). Slc26a1 and slc26a2 assays were done in transfected HEK 293 cells (see Supplemental Methods for details). Niflumic acid was used as a positive control for SLC26A isoforms ([7]). For TMEM16A, the selective small-molecule inhibitor TMinh-23 was used as a positive control ([28]). The activities of ENaC, CFTR, and CaCC were determined using well-differentiated HBE cells as described previously ([13]). Cl^–/HCO3^– exchange was measured as described previously ([7], [10], [11]). Briefly, cell cytoplasm was labeled with the pH-sensitive fluorescent dye BCECF-AM (Invitrogen), and Cl^–/HCO3^– exchange was measured in response to addition of a gluconate-containing solution to drive exchange of cytoplasmic Cl^– for extracellular HCO3^–, producing cytoplasmic alkalinization.

pIC50 (PAT1 (murine slc26a6) [1]): 6.59
pIC50 (PAT1 (murine slc26a6) [2]): 6.54
SMILES: Cc1c(Br)c(C(F)(F)F)nn1CC(=O)N1CCc2nc3cc(-c4ccccc4)[nH]n3c(=O)c2C1 [PAT1inh-B01]
